Data from patent US9771360B2, “Cyano-substituted imidazo[1,2-A]pyridinecarboxamides and their use” (Bayer Pharma Aktiengesellschaft, priority 2014, dated 2017).

Biological target: T1, recombinant guanylate cyclase reporter cell line (Rattus norvegicus, UniProt P19686+P20595)
T1 construct: expressed in transfected cells
T1 sequence (P20595 1-619): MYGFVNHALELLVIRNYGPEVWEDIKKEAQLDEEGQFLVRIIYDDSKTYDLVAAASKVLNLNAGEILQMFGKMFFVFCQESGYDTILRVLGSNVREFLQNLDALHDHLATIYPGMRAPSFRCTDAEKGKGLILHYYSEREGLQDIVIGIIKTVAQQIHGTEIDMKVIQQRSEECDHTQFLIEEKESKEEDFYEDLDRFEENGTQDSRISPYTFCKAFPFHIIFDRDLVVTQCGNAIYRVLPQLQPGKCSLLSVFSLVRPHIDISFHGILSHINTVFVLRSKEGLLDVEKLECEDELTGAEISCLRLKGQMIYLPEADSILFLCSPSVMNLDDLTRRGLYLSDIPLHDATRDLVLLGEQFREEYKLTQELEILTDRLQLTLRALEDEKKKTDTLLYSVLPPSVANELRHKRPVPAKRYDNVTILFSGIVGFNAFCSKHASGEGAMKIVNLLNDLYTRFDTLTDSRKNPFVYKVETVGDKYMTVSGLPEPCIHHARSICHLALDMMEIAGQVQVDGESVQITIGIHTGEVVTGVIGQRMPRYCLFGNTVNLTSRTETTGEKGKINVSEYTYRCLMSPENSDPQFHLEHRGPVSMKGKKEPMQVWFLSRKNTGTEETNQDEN
T1 sequence (P19686 1-690): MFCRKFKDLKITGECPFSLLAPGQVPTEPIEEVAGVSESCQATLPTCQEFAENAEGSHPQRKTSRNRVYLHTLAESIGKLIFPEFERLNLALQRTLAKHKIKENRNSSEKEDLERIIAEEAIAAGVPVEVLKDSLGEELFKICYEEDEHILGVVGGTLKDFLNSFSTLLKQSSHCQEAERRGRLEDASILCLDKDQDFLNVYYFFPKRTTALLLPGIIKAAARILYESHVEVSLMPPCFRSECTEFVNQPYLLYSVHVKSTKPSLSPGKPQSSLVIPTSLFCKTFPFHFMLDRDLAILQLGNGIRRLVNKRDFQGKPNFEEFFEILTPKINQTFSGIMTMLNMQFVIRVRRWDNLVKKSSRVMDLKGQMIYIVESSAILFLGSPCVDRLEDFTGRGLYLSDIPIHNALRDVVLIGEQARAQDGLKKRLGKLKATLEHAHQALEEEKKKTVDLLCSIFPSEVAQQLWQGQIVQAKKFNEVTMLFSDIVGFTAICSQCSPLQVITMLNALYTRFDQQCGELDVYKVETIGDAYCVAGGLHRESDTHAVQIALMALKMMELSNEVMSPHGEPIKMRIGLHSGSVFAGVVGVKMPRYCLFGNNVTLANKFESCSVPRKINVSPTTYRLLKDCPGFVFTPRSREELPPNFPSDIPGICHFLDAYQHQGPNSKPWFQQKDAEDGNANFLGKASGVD
Assay: Effect on a recombinant guanylate cyclase reporter cell line (B-2)
Type: cell-based
Settings: MEC = minimum effective concentration; in some cases mean values from individual determinations
Procedure: B-2. Effect on a Recombinant Guanylate Cyclase Reporter Cell Line
The cellular activity of the compounds according to the invention is determined using a recombinant guanylate cyclase reporter cell line, as described in F. Wunder et al., Anal. Biochem. 339, 104-112 (2005).
Representative MEC values (MEC=minimum effective concentration) for the compounds of the invention are shown in the table below (in some cases as mean values from individual determinations): […]

Row | MEC [µM] | SMILES
1 | 0.3 | Cc1cc(OCc2c(F)cccc2F)c2nc(C)c(C(=O)NC3(C#N)CC3)n2c1 [Example 4, N-(1-cyanocyclopropyl)-8-[(2,6-difluorobenzyl)oxy]-2,6-dimethylimidazo[1,2-a]pyridine-3-carboxamide]
2 | 1 | CCOc1ccc(NC(=O)c2c(C)nc3c(OCc4c(F)cccc4F)cc(C)cn23)cc1C#N [Example 32, N-(3-Cyano-4-ethoxyphenyl)-8-[(2,6-difluorobenzyl)oxy]-2,6-dimethylimidazo[1,2-a]pyridine-3-carboxamide]
3 | 3 | Cc1cc(OCc2c(F)cccc2F)c2nc(C)c(C(=O)NCC(N)CCCC#N)n2c1 (single isomer, unassigned) [Example 46, ent-N-(2-Amino-5-cyanopentyl)-8-[(2,6-difluorobenzyl)oxy]-2,6-dimethylimidazo[1,2-a]pyridine-3-carboxamide]
4 | 1 | Cc1cc(OCc2c(F)cccc2F)c2nc(C)c(C(=O)Nc3ccc(CC#N)cc3)n2c1 [Example 36, N-[4-(cyanomethyl)phenyl]-8-[(2,6-difluorobenzyl)oxy]-2,6-dimethylimidazo[1,2-a]pyridine-3-carboxamide]
5 | 0.3 | COCC(C)(C#N)NC(=O)c1c(C)nc2c(OCc3c(F)cccc3F)cc(C)cn12 (racemic) [Example 7, rac-N-(2-cyano-1-methoxypropan-2-yl)-8-[(2,6-difluorobenzyl)oxy]-2,6-dimethylimidazo[1,2-a]pyridine-3-carboxamide]
6 | 10 | Cc1cc(OC(C)c2c(F)cccc2F)c2nc(C)c(C(=O)NC(C#N)c3ccc(Cl)cc3)n2c1 (stereo not drawn) [Example 26, N-[(4-chlorophenyl)(cyano)methyl]-8-[1-(2,6-difluorophenyl)ethoxy]-2,6-dimethylimidazo[1,2-a]pyridine-3-carboxamide]
